This is an account of results in patent EP2468741A1, “Novel quercetin derivatives, their preparation, pharmaceutical compositions containing them and their use” (Bel/Novamann International s.r.o., priority 2010, dated 2012).

The assay is described as follows: Free radical inhibiting activity in vitro (DPPH). Particulars: 50 µM DPPH in ethanol, 30 minutes, room temperature, decrease in OD, solvent control subtracted. It counts as biochemical. How it is done: A 50 µM solution of 1,1-diphenyl-2-picrylhydrazyl (DPPH) in ethanol is added for 30 minutes at room temperature to a tested sample. The drop in absorbance is then measured and the results are given as the percentage decrease in OD caused by the test compound relative to the solvent used. The tested products are dissolved in ethanol (except product according to Example 7 when DMSO was used); the results (solvent control subtracted) are given as % free radical inhibiting activity as described in table 2.
For orientation: Loss of DPPH colour is used to gauge radical scavenging.

Take “1,3-bis-butyryloxy-11a-hydroxy-9-(3,5,7-tributyryloxy-4H-1-benzopyran-4-on-2-yl)-5a-(3,4-bisbutyryloxyphenyl)-5,6,11-hexahydro-5,6,11-trioxanaphtacene-12-one [Example 7]”: the “Free radical inhibiting activity” value (dissolved in DMSO) amounted to 95%.

Consider `CC(=O)Oc1ccccc1C(=O)Oc1cc(O)c2c(=O)c(OC(=O)c3ccccc3OC(C)=O)c(-c3ccc(OC(=O)c4ccccc4OC(C)=O)c(OC(=O)c4ccccc4OC(C)=O)c3)oc2c1` [Example 3, 3,7-bis-(2-acetylsalicyloyloxy)-2-(3,4-bis-(2-acetylsalicyloyloxy)phenyl)-5-hydroxy-chromen-4-one], for which the “Free radical inhibiting activity” value (dissolved in ethanol) was 82%.

As for `COc1cc(C=CC(=O)Oc2cc(O)c3c(=O)c(OC(=O)C=Cc4ccc(OCC=C(C)C)c(OC)c4)c(-c4ccc(OC(=O)C=Cc5ccc(OCC=C(C)C)c(OC)c5)c(OC(=O)C=Cc5ccc(OCC=C(C)C)c(OC)c5)c4)oc3c2)ccc1OCC=C(C)C` [Example 8, 3-(O-prenylferuloyloxy)-2-(3,4-bis-(O-prenylferuloyloxy)phenyl)-7-(O-prenyl-feruloyloxy)-5-hydroxy-chromen-4-one], where the note is “dissolved in ethanol”, the “Free radical inhibiting activity” value was 75%.

`O=c1c(O)c(-c2ccc(O)c(O)c2)oc2cc(O)cc(O)c12` [Quercetin]: where the note is “dissolved in ethanol”, the “Free radical inhibiting activity” value came to 62%.
